The subject of experiment [1] is CCRF-CEM. The experiment is described as follows: Tested for antiviral activity against Human Immunodeficiency virus (HIV-1) replication in CEM cells. Type of experiment: functional, cell-based.
Experiment [2] concerns the target Human immunodeficiency virus type 1 integrase (Human immunodeficiency virus 1, UniProt Q7ZJM1). Description: Inhibition of human immunodeficiency virus - 1 (HIV-1) integrase.
Experiment [3] in a line: Cytotoxicity in a cell viability MTT assay. It is filed as functional. Particulars: read-out: TC50 (the source's name). On the technique in general: Tetrazolium dyes change colour on reduction, which living cells bring about.

For orientation: IC50 means the concentration needed to halve the response being measured.

Sequence of Human immunodeficiency virus type 1 integrase (Q7ZJM1 whole entry): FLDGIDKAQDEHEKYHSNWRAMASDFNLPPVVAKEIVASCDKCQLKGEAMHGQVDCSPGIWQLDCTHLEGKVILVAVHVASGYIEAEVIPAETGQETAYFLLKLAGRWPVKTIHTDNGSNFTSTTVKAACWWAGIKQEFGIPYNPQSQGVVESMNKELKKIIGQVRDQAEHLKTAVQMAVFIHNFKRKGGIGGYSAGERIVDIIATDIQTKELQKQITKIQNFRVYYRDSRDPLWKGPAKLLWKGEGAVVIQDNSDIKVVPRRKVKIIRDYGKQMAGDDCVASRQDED

Consider `Cc1cc2cc(O)c(O)cc2c(C)c1-c1ccccc1C(F)(F)F`, for which the figures for the IC50 in experiment [1] and in experiment [2] were 10.3 µM and 22 µM, respectively. The CC50 in experiment [3] turned out to be 13.6 µM.

`Cc1ccc(-c2c(C)cc3cc(O)c(O)cc3c2C)cc1` yielded an IC50 in experiment [2] of 84 µM.

In experiment [2], `Cc1cc2ccccc2c(C)c1-c1ccc(O)c(O)c1` showed an IC50 of 500 µM. With `Oc1cc2c(cc1O)C1Cc3cc(O)c(O)cc3C(C2)O1`, the IC50 turned out to be 98 µM in experiment [1] and 1.3 µM in experiment [2]. Further, the CC50 in experiment [3] is more than 100 µM. For `Cc1cc2cc(O)c(O)cc2c(C)c1-c1cccc(C(F)(F)F)c1`, in that order: 5.7 µM, 13 µM and 72.6 µM. In experiment [2], `Cc1cc2c(F)cccc2c(C)c1-c1ccc(O)c(O)c1` had an IC50 of 500 µM. `Cc1cc2ccc(F)cc2c(C)c1-c1ccc(O)c(O)c1` registered an IC50 in experiment [2] of 500 µM. For `Cc1cc2cc(O)c(O)cc2c(C)c1-c1ccc(F)cc1`, it took 138 µM to reach half-maximal inhibition in experiment [2] (IC50). Compared with the last compound, the IC50 is about 3.6-fold lower.

With `Cc1cc2cc(O)c(O)cc2c(C)c1-c1ccc(C(F)(F)F)cc1`, the IC50 amounted to 10.5 µM in experiment [1] and 21 µM in experiment [2]. The CC50 in experiment [3] stood at 19 µM. The corresponding values for `Oc1ccc(-c2ccc3cc(O)c(O)cc3c2)cc1O` are 9.9 µM, 2.1 µM and 51 µM. Consider `Cc1cc2cc(O)c(O)cc2c(C)c1-c1ccccc1F`, for which half-maximal inhibition in experiment [2] (IC50) required 500 µM. `Cc1cc2cc(O)c(O)cc2c(C)c1-c1ccccc1` came in with an IC50 in experiment [2] of 76 µM. Against the preceding compound, the IC50 is about 6.6-fold lower. In experiment [2], `Cc1ccc2cc(C)c(-c3ccc(O)c(O)c3)c(C)c2c1` displayed an IC50 of 157 µM.

For the compound `Cc1cc2cc(O)c(O)cc2c(C)c1-c1ccc(O)c(O)c1`, the IC50 in experiment [1] came to 8.7 µM; in experiment [2], 23 µM. Further, the CC50 in experiment [3] came to 33 µM.

The values are drawn from ChEMBL document CHEMBL1134155, “Synthesis and HIV-1 integrase inhibitory activities of catechol and bis-catechol derivatives” (Bioorg Med Chem Lett, 2001).
